From PMC8161026, “Synthesis and Anticancer Activity Evaluation of 5-[2-Chloro-3-(4-nitrophenyl)-2-propenylidene]-4-thiazolidinones” (Molecules, 2021)

Tests used:
SF-295 = test: NCI DTP 60 cell line screen, SRB
NCI-322M = test: NCI DTP 60 cell line screen, SRB; conditions: 48 h
786-0 = 786-0 (Renal Cancer), 48 h, SRB
SNB-75 = test: cells; conditions: Homo sapiens, SNB-75, 48 h
LOX IMVI = LOX IMVI (Melanoma), 48 h, SRB
MCF-7 = test: NCI DTP 60 cell line screen, SRB
60 tumor cell lines = test: NCI60 full panel MG_MID
Protocol: At the first stage of biological activity study, the antitumor activity screening of the selected compounds 2b, 2c, 2f, 2h, and 2j was performed according to the NCI DTP (USA) standard protocol at the concentrations ranging from 10^−4 to 10^−8 M toward 60 tumor cell lines. The percentage of growth was evaluated spectrophotometrically versus controls not treated with test agents after 48 h exposure and using SRB protein assay to estimate cell viability or growth. Dose–response parameters were calculated for each cell line: GI50—molar concentration of the compound that inhibits 50% net cell growth; TGI—molar concentration of the compound leading to the total inhibition; and LC50—molar concentration of the compound leading to 50% net cell death. Furthermore, mean graph midpoints (MG_MID) were calculated for each of the parameters, giving an average activity parameter over all cell lines for the tested compound. For the MG_MID calculation, insensitive cell lines were included with the highest concentration tested.
Primary anticancer assay was performed on a panel of approximately sixty human tumor cell lines derived from nine neoplastic diseases, in accordance with the protocol of the Drug Evaluation Branch, National Cancer Institute, Bethesda. Tested compounds were added to the culture at a single concentration (10^−5 M) and the cultures were incubated for 48 h. End point determinations were made with a protein binding dye, sulforhodamine B (SRB). […] The percentage growth was evaluated spectrophotometrically versus controls not treated with test agents.
Dose–response parameters (GI50, TGI, LC50) were calculated for each compound. […] The drug concentration resulting in total growth inhibition (TGI) was calculated from Ti = Tz. The LC50 (concentration of drug resulting in a 50% reduction in the measured protein at the end of the drug treatment as compared to that at the beginning) indicating a net loss of cells following treatment was calculated from [(Ti − Tz)/Tz] × 100 = −50 (2). Values were calculated for each of these parameters if the level of activity was reached; however, if the effect was not reached or was excessive, the value for that parameter was expressed as more or less than the maximum or minimum concentration tested.

SK-MEL-28 = SK-MEL-28 (Melanoma), 48 h, SRB
T-47D = T-47D (Breast Cancer), 48 h, SRB
IGROV1 = test: NCI DTP 60 cell line screen, SRB
[1] = test system: MDA-MB-231 (breast cancer); test: MTT cell viability assay; assay type: cell-based; conditions: Homo sapiens; MDA-MB-231, MTT, 24 h
Protocol: (§1) In the second stage of the research, Ciminalum-thiazolidinone hybrids were investigated for antitumor activity on the lines of gastric cancer (AGS), human colon cancer (DLD-1), and breast cancers (MCF-7 and MDA-MB-231). The study was performed in the MTT assay according to the method described previously. The studied cancer line was sensitive to the action of the studied compounds that inhibited its growth in micromolar ranges of GI50. The hit compounds that inhibited the growth of all four cancer lines with the lowest GI50 values were [5-[2-chloro-3-(4-nitrophenyl)prop-2-enylidene]-rhodanines 2c, 2d, 2h, and 2i (Table 4).

[2] = test system: DLD-1 (human colon cancer); test: MTT cell viability assay; assay type: cell-based; conditions: DLD-1, MTT, 24 h
Protocol: as §1

AGS (gastric cancer) = test: MTT cell viability assay; assay type: cell-based; conditions: Homo sapiens, 24 h
Protocol: as §1

MCF-7 (breast cancer) = test: MTT cell viability assay; assay type: cell-based; conditions: Homo sapiens, MCF7; MCF-7, MTT, 24 h
Protocol: as §1

CCRF-CEM = test: NCI DTP 60 cell line screen, SRB; conditions: 48 h
SK-MEL-2 = test: cells; conditions: Homo sapiens, SK-MEL-2, 48 h
NCI-H23 = NCI-H23 (Non-Small Cell Lung Cancer), 48 h, SRB
HCT-116 = test: cells; conditions: Homo sapiens, HCT-116, 48 h
OVCAR-3 = test: NCI DTP 60 cell line screen, SRB
Colo 205 = test: NCI DTP 60 cell line screen, SRB
SF-268 = test: NCI DTP 60 cell line screen, SRB

SMILES: O=C1NC(=S)S/C1=C\C(Cl)=C\c1ccc([N+](=O)[O-])cc1 [Compound 2b, 5-[(Z,2Z)-2-Chloro-3-(4-nitrophenyl)-2-propenylidene]-2-thioxo-4-thiazolidinone]
- GI50 (SF-295; Homo sapiens, SF-295, 48 h): 8.46 µM
- CC50 (SF-295; Homo sapiens, SF-295, 48 h, read-out: LC50): > 50 µM
- TGI (SF-295; SF-295 (CNS Cancer), 48 h, SRB): 37.9 µM
- GI50 (NCI-322M; Homo sapiens, NCI-322M): 6.51 µM
- CC50 (NCI-322M; Homo sapiens, NCI-322M, read-out: LC50): > 50 µM
- TGI (NCI-322M; NCI-322M (Non-Small Cell Lung Cancer), SRB): 18.8 µM
- TGI (786-0): 18.8 µM
- GI50 (SNB-75): 7.59 µM
- CC50 (SNB-75; read-out: LC50): > 50 µM
- TGI (LOX IMVI): 15.4 µM
- GI50 (MCF-7; Homo sapiens, MCF7, 48 h): 2.14 µM
- CC50 (MCF-7; Homo sapiens, MCF7, 48 h, read-out: LC50): > 50 µM
- TGI (MCF-7; MCF-7 (Breast Cancer), 48 h, SRB): 38.0 µM
- GI50 (60 tumor cell lines; Homo sapiens, read-out: 60 lines MG_MID, GI50): 4.79 µM
- CC50 (60 tumor cell lines; Homo sapiens, read-out: 60 lines MG_MID, LC50): 43.5 µM
- 60 lines MG_MID, TGI (60 tumor cell lines; mean over all cell lines): 20.3 µM
- TGI (SK-MEL-28): 12.3 µM
- TGI (T-47D): > 50 µM
- GI50 (IGROV1; Homo sapiens, IGROV-1, 48 h): 7.28 µM
- CC50 (IGROV1; Homo sapiens, IGROV-1, 48 h, read-out: LC50): > 50 µM
- TGI (IGROV1; IGROV1 (Ovarian Cancer), 48 h, SRB): 21.1 µM
- GI50 [1]: 10.6 µM
- GI50 [2]: 8.39 µM
- GI50 (AGS (gastric cancer)): 7.86 µM
- GI50 (MCF-7 (breast cancer)): 4.79 µM
- TGI (CCRF-CEM; CCRF-CEM (Leukemia), SRB): 21.5 µM
- GI50 (CCRF-CEM; Homo sapiens, CCRF-CEM): 1.97 µM
- CC50 (CCRF-CEM; Homo sapiens, CCRF-CEM, read-out: LC50): > 50 µM
- GI50 (SK-MEL-2): 8.07 µM
- CC50 (SK-MEL-2; read-out: LC50): > 50 µM
- TGI (NCI-H23): 13.4 µM
- GI50 (HCT-116): 2.93 µM
- CC50 (HCT-116; read-out: LC50): 33.7 µM
- GI50 (OVCAR-3; Homo sapiens, OVCAR-3, 48 h): 1.65 µM
- CC50 (OVCAR-3; Homo sapiens, OVCAR-3, 48 h, read-out: LC50): 26.6 µM
- TGI (OVCAR-3; OVCAR-3 (Ovarian Cancer), 48 h, SRB): 8.08 µM
- TGI (Colo 205; Colo 205 (Colon Cancer), 48 h, SRB): 17.4 µM
- GI50 (Colo 205; Homo sapiens, COLO 205, 48 h): 4.04 µM
- CC50 (Colo 205; Homo sapiens, COLO 205, 48 h, read-out: LC50): > 50 µM
- GI50 (SF-268; Homo sapiens, SF-268, 48 h): 5.24 µM
- CC50 (SF-268; Homo sapiens, SF-268, 48 h, read-out: LC50): > 50 µM
- TGI (SF-268; SF-268 (CNS Cancer), 48 h, SRB): 18.9 µM
